Results taken from patent US6706509B2, “Oncoprotein protein kinase” (The Regents of the University of California, priority 1993, dated 2004).

Assays:
MEK = MEK assay with kinase-defective ERK1 substrate, Jurkat cells and mouse thymocytes; format: cell-based, human; mouse
Protocol: JNK is a proline-directed protein kinase activated by extracellular stimuli (Hibi, et al., supra, 1993). In that respect, it resembles the ERK1 and 2 MAP kinases (Boulton, et al., Cell, 65:663-675, 1991). Since ERK1 and 2 appear to be involved in induction of c-fos (Gille, et al., Nature, 358:414-417, 1992; Marais, et al., Cell, 73:381-393, 1993) and could thereby participate in T cell activation, their regulation was examined. ERK1 and ERK2 activities were measured in both Jurkat and mouse thymocytes using an immunecomplex kinase assay and myelin basic protein (MBP) as a substrate. Recombinant, kinase-defective ERK1 was also used a substrate for assaying MEK, the protein kinase responsible for activation of ERK1 and 2 (Crews, et al., Science, 258:478-480, 1992).
WCE (5 μg) of Jurkat (FIG. 15, panel A) or mouse thymocytes (panel C) were incubated with 1 μg of kinase-defective ERK1 in kinase buffer containing γ-^32P-ATP for 20 minutes. The phosphorylated proteins were separated by SDS-PAGE and the band corresponding to the mutant ERK1 is indicated. WCE (20 μg) of Jurkat (panel B) or mouse thymocytes (panel C) that were treated as described above were immunoprecipitated with anti-ERK antibodies (a gift from Dr. M. Weber). The immune complexes were washed and incubated in kinase buffer containing γ-^32P-ATP and 2 μg MBP for 15 minutes at 30° C. The phosphorylated proteins were separated by SDS-PAGE. The band corresponding to phosphorylated MBP is indicated.

Ha-Ras = assay: GTP content of Ha-Ras in 32P-labelled Jurkat cells; format: cell-based, human; settings: for Ha-Ras activation measured by increase in GTP content, agent alone: 10 ng/ml TPA, 1 μg/ml anti-CD3 or 2 μg/ml anti-CD28, 2 minutes
Protocol: Jurkat cells 10×10^6 were labelled for 3 hours with ^32P-orthophosphate (ICN Radiochemicals) at 1 mCi/ml in 5 mM of Na3VO4 phosphate-free DMEM supplemented with 1 mg/ml BSA. Before harvest, cells were stimulated with TPA, 10 ng/ml, A23187, 1 μg/ml anti-CD3 antibody (OKT3), 10 μg/ml, anti-CD28 antibody, 2 μg/ml or their combinations. After treatment for a specified period, cells were washed once immediately with ice cold PBS, twice with ice-cold Tris-Buffered saline (50 mM Tris-HCl, pH 7.5, 20 mM MgCl2, 150 mM NaCl, […] Nonidet P-40/1 μg/ml of aprotinin, leupeptin, pepstatin and 1 mM phenylmethyl sulfonylfluoride). Ras p21 was immunoprecipitated with monoclonal antibody […] (Santa Cruz Biotechnology, Inc., Santa Cruz, Calif.). The GDP/GTP content of Ras was analyzed by TLC as described (Satoh, et al., Proc. Natl. Acad. Sci., USA, 15:5993, 1990) and quantitated with an Ambis radioanalytic image system (Ambis, San Diego, Calif.).
Jurkat cells (2×10^6 cells per point) labeled with 0.4 mCi of ^32P-orthophosphate for 3 hours were incubated with nonspecific antibody (1 μg/ml mouse IgG; control), 1 μg/ml anti-CD3, 2 μg/ml anti-CD28, 10 ng/ml TPA or 500 ng/ml A23187 (A), as indicated. After 2 minutes, the cells were harvested, lysed and Ha-Ras was isolated by immunoprecipitation. The guanine nucleotide bound to Ha-Ras were extracted, separated by thin layer chromatography and quantitiated as described in EXAMPLE 9. The values shown represent the averages of two separate experiments done in duplicates. Jurkat cells were labeled with ^32P-orthophosphate and stimulated with either TPA or anti-CD3 as described above. At the indicated time points, the cells were harvested and the GTP content of Ha-Ras was determined as described directly above.

cyclosporin A [CsA]
MEK activity, effect of A23187 or CsA (MEK): had no effect on either activity

CNc1ccc2oc(C[C@H]3O[C@@]4(CC[C@H]3C)O[C@H]([C@H](C)C(=O)c3ccc[nH]3)[C@H](C)C[C@H]4C)nc2c1C(=O)O [A23187]
Ha-Ras activation by anti-CD3 or TPA, costimulation with anti-CD28 or A23187, respectively (Ha-Ras): not augmented
MEK activity, effect of A23187 or CsA (MEK): had no effect on either activity

CCCCCCCCCCCCCC(=O)O[C@@H]1[C@@H](C)[C@@]2(O)[C@@H](C=C(CO)C[C@]3(O)C(=O)C(C)=C[C@@H]23)[C@H]2C(C)(C)[C@]12OC(C)=O [TPA]
Ha-Ras activation measured by increase in GTP content, agent alone (Ha-Ras): activation of Ha-Ras
persistence of Ha-Ras activation (Ha-Ras; TPA): at least 20 minutes
MEK activity, TPA treatment (MEK; Jurkat cells or mouse thymocytes): fully stimulated

anti-CD3: anti-CD3 monoclonal antibody OKT3
Ha-Ras activation measured by increase in GTP content, agent alone (Ha-Ras): activation of Ha-Ras
time course of Ha-Ras response (Ha-Ras; soluble anti-CD3): highly transient
